Results: patent US12708620B2, “Prodrugs and medical uses thereof” (priority 2018, dated 2026)

What was measured:
[1] = tested on: MDA-MB-436 tumor xenograft; experiment: triple negative breast cancer xenograft model; format: in vivo, BALB/c Nude Mice; settings: MDA-MB-436 xenograft, single treatment cycle; for Anti-tumor effect: 600 mg/kg IP, hypoxic status confirmed, methanesulfonate, 600 mg/kg
Procedure: (§1) All animal models were established as xenograft model in BALB/c Nude Mice (6-8 weeks old, 17-23 grams, maintained in standard conditions and diet), following approved IACUC (Institutional Animal Care and Use Committees) protocols. Cpd.11 Ms was formulated using 2% dimethyl sulfoxide (DMSO in water for injection, starting from a Cpd.11 Ms main preparation (100-60 mg/ml in 2% DMSO in water for injection).
(§2) After tumor cell inoculation, the animals were checked daily for morbidity and mortality. Before commencement of treatment all animals were weighed and the tumor volumes were measured using a caliper. The treatments were started when the mean tumor size reached approx. 250 mm^3. Each treated/control group contained 10 mice that were randomly assigned and injected daily for 5 days. The date of tumor cell inoculation was denoted as day 0 (thus injections were performed at day 1, 2, 3, 4, and 5). At the time of routine monitoring, the animals were checked for any effects of tumor growth and treatments on normal behavior such as mobility, visual estimation of food and water consumption, body weight gain/loss (body weights were measured daily during the 5-day treatment and thrice weekly after treatment), eye/hair matting and any other abnormal effect. Death and observed clinical signs were recorded on the basis of the numbers of animals within each subset. Tumor volumes were measured daily during the 5-day treatment and thrice weekly after treatment in two dimensions using a caliper, and the volume was expressed in mm3 using the formula: V=0.5 a×b2 where a and b are the long and short diameters of the tumor, respectively. The entire procedures of dosing as well as tumor and body weight measurement were conducted in a Laminar Flow Cabinet. Individual mice were euthanized by cervical dislocation when the tumor size reached 1400-1600 mm3. The surrogate endpoint for survival was calculated and indicated as TVx4 (initial tumor volume times 4). Statistical analysis of difference in tumor volume among the groups was conducted at the end of experiment using Independent-Samples T Test. All data were analyzed in SPSS (Statistical Product and Service Solutions) version 18.0 (IBM, Armonk, NY, U.S.). P-values were rounded to three decimal places, with the exception that raw P-values less than 0.001 were stated as P<0.001. All tests were two-sided. P<0.05 was considered to be statistically significant.
For the MDA-MB-436 tumor (ATCC: HTB-130; Passage: P4) cells were maintained in vitro as a monolayer culture in L-15 medium supplemented with 10% heat inactivated fetal bovine serum at 37° C. in an atmosphere of 100% air. […] The cells growing in an exponential growth phase were harvested and counted for tumor inoculation. […]

[2] = tested on: NCI-H69 tumor xenograft; experiment: lung cancer (SCLC) xenograft model; format: in vivo, BALB/c Nude Mice; settings: for Anti-tumor effect: 600 mg/kg IP, hypoxic status confirmed, methanesulfonate, 600 mg/kg
Procedure: as §1
as §2, with “Each treated/control group contained 10 mice that were randomly assigned and injected daily for 5 days.” left out
For the MDA-MB-436 tumor (ATCC: HTB-130; Passage: P4) cells were maintained in vitro as a monolayer culture in L-15 medium supplemented with 10% heat inactivated fetal bovine serum at 37° C. in an atmosphere of 100% air. For NCI-H69 (ATCC: HTB-119; Passage: P3), tumor cells were maintained in vitro in RPMI1640 medium supplemented with 10% fetal bovine serum at 370C in an atmosphere of 5% CO2 in air. For PANC-1 (ATCC: CRL-1469; Passage: P2) tumor cells were maintained in vitro as a monolayer culture in DMEM medium supplemented with 10% heat inactivated fetal bovine serum at 37 °C in an atmosphere of 5% CO2 in air. The tumor cells were routinely sub-cultured twice weekly by trypsin-EDTA treatment. The cells growing in an exponential growth phase were harvested and counted for tumor inoculation. Each mouse was inoculated with 1×10^7 tumor cells (orthotopically at the right mammary fat pad for MDA-MB-436 model, or subcutaneously at the right flank region for both NCI-H69 model and PANC-1 model) in 0.1 ml of PBS mixed with Matrigel (1:1, Corning, #354234) for tumor development. […]

CCN1CCN(C(=O)c2cc(N(CCBr)CCOS(C)(=O)=O)c(S(C)(=O)=O)cc2[N+](=O)[O-])CC1.CS(=O)(=O)O [Cpd.11 Ms, 4-(5-((2-bromoethyl) (2-((methylsulfonyl)oxy)ethyl)amino)-4-(methylsulfonyl)-2-nitrobenzoyl)-1-ethylpiperazin-1-ium methanesulfonate]
Anti-tumor effect ([1]; listed as Cpd.11Ms): Strong impact, | Anti-tumor effect [1]: significant regression of the tumour | effects on body weight ([1]; IP): absence of effects on body weight | median surrogate survival index (TVx4) compared to vehicle treated animals ([1]; IP): more than double | Anti-tumor effect ([2]; single treatment cycle, listed as Cpd.11Ms): Strong impact, | Anti-tumor effect ([2]; single treatment cycle): significant regression of the tumours | therapeutic response with alternative regimens ([2]; repeated administration over 3 weeks): longer term tumor control | effects on body weight ([2]; single treatment cycle, IP): absence of effects on body weight | median surrogate survival index (TVx4) in comparison to vehicle treated animals ([2]; single treatment cycle, IP): doubled
